Assay results as given in patent US20240067632A1, “WEE1 Degrading Compounds and Uses Thereof” (Bristol-Myers Squibb Company, priority 2022, published 2024).
Like-named read-outs stand apart in the source and are kept apart here.

What was measured:
WEE1 = biological target: T1, WEE1 (Homo sapiens, UniProt P30291+Q96SW2); experiment: WEE1-ePL degradation assay (LentiX-WEE1-ePL-GSPT1-ND cells, InCELL Hunter luminescence, 4 h); assay type: cell-based; settings: 293T-LentiX WEE1-ePL cells; for DC50: read-out: 293T-LentiX WEE1-ePL Degradation 4 hr (EC50)
T1 construct: C-terminal ePL-tagged (DiscoverX, Fremont, CA) full-length WEE1 expression construct; expressed in transfected cells; host or cells: LentiX-HEK293T (Invitrogen), lentiviral transduction; co-expressing GSPT1-GN (G576N, lacking the first 158 amino acids)
Procedure, shortened: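 HEK293T cells stably expressing C-terminal ePL-tagged full-length WEE1, 2500 cells/well, treated 4 h at 37° C with a 10-point 3-fold series from 1 or 10 uM. Remaining WEE1-ePL read by InCELL Hunter luminescence after 30 min. EC50 came from a four-parameter logistic fit, with Ymax set from DMSO control.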

MKN45 cells = experiment: MKN45 cell proliferation assay (Cell-Titer-Glo, 120 h); assay type: cell-based; settings: for EC50: Homo sapiens, MKN-45, 120 h, Cell-Titer-Glo, read-out: MKN45 Cell Prolif. 120 hr (EC50); for MKN45 Cell Prolif. 120 hr (Ymin-Obs): minimal percent of DMSO control observed in the concentrations tested
Procedure, shortened: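 Cells seeded at 400/well onto pre-printed 10-point half-log dilutions (top 1 or 10 uM, 0.1% DMSO final), in triplicate, and grown 120 h at 37 C. Viability by Cell-Titer-Glo luminescence, blank-subtracted and normalised to DMSO; EC50 from four-parameter logistic fit, with observed minimal % of control recorded as Ymin-obs.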

[1] = lower limit of the fit (0 = luciferase inhibitor, Ymax = DMSO control)
[2] = lower limit of the fit (Ymin=0 luciferase inhibitor, Ymax DMSO control)

Structure (SMILES)	293T-LentiX WEE1-ePL Degradation 4 hr (Ymin) (WEE1; [1])	DC50 (WEE1)	EC50 (MKN45 cells; growth inhibition)	MKN45 Cell Prolif. 120 hr (Ymin-Obs) (MKN45 cells)	293T-LentiX WEE1-ePL Degradation 4 hr (Ymin) (WEE1; [2])	EC50 (MKN45 cells)
O=C1CCC(N2Cc3cc(O[C@H]4CCN(Cc5ccc6cnccc6c5)C4)ccc3C2=O)C(=O)N1 (stereo partly drawn) [3-(5-{[(3S)-1-[(isoquinolin-6-yl)methyl]pyrrolidin-3-yl]oxy}-1-oxo-2,3-dihydro-1H-isoindol-2-yl)piperidine-2,6-dione]	25.71	17 nM	52.7 nM	15.77	–	–
O=C1CCC(N2Cc3cc(O[C@H]4CCN(Cc5ccc6nc(N7CCCCC7=O)ccc6c5)C4)ccc3C2=O)C(=O)N1 (stereo partly drawn) [3-(1-oxo-5-{[(3S)-1-{[2-(2-oxopiperidin-1-yl)quinolin-6-yl]methyl}pyrrolidin-3-yl]oxy}-2,3-dihydro-1H-isoindol-2-yl)piperidine-2,6-dione]	31.5	1.73 nM	0.959 nM	7.56	–	–
O=C1CCC(N2Cc3cc(O[C@H]4CCN(Cc5ccnc6c5CCOC6)C4)ccc3C2=O)C(=O)N1 (stereo partly drawn) [3-(1-oxo-5-{[(3S)-1-({5H,6H,8H-pyrano[3,4-b]pyridin-4-yl}methyl)pyrrolidin-3-yl]oxy}-2,3-dihydro-1H-isoindol-2-yl)piperidine-2,6-dione]	51	62.7 nM	1280 nM	56.39	–	–
CC(=O)N1CCN(c2ccc3cc(CN4CC[C@H](Oc5ccc6c(c5)CN([C@H]5CCC(=O)NC5=O)C6=O)C4)ccc3n2)CC1 [(3S)-3-(5-{[(3S)-1-{[2-(4-acetylpiperazin-1-yl)quinolin-6-yl]methyl}pyrrolidin-3-yl]oxy}-1-oxo-2,3-dihydro-1H-isoindol-2-yl)piperidine-2,6-dione]	–	1.69 nM	–	17.95	40.44	9.94 nM
O=C1CCC(N2Cc3cc(O[C@H]4CCN(Cc5ccc6nc(Cl)ccc6c5)C4)ccc3C2=O)C(=O)N1 (stereo partly drawn) [3-(5-{[(3S)-1-[(2-chloroquinolin-6-yl)methyl]pyrrolidin-3-yl]oxy}-1-oxo-2,3-dihydro-1H-isoindol-2-yl)piperidine-2,6-dione]	29.2	2.82 nM	9.58 nM	12.57	–	–
O=C1CCC(N2Cc3cc(O[C@@H]4CN(Cc5ccc6nc([C@H]7CCOC7)ccc6c5)C[C@H]4C(F)(F)F)ccc3C2=O)C(=O)N1 (stereo partly drawn) [3-(1-oxo-5-{[(3S,4R)-1-({2-[(3R)-oxolan-3-yl]quinolin-6-yl}methyl)-4-(trifluoromethyl)pyrrolidin-3-yl]oxy}-2,3-dihydro-1H-isoindol-2-yl)piperidine-2,6-dione]	–	3.64 nM	–	24.26	27.14	22.6 nM
O=C1CCC(N2Cc3cc(O[C@H]4CCN(Cc5ccc6nc(N7CCS(=O)(=O)CC7)ccc6c5)C4)ccc3C2=O)C(=O)N1 (stereo partly drawn) [4-(6-{[(3S)-3-{[2-(2,6-dioxopiperidin-3-yl)-1-oxo-2,3-dihydro-1H-isoindol-5-yl]oxy}pyrrolidin-1-yl]methyl}quinolin-2-yl)-1λ^6-thiomorpholine-1,1-dione]	40	19.1 nM	29.4 nM	10.02	–	–
N#Cc1ccc2cc(CN3CC[C@H](Oc4ccc5c(c4)CN([C@H]4CCC(=O)NC4=O)C5=O)C3)ccc2n1 [6-{[(3S)-3-({2-[(3S)-2,6-dioxopiperidin-3-yl]-1-oxo-2,3-dihydro-1H-isoindol-5-yl}oxy)pyrrolidin-1-yl]methyl}quinoline-2-carbonitrile]	–	2.46 nM	–	14.78	28.06	6.01 nM
C[C@@H]1CN(Cc2cc(F)c3nc([C@H]4CCOC4)ccc3c2)C[C@H]1Oc1ccc2c(c1)CN([C@H]1CCC(=O)NC1=O)C2=O [(3S)-3-(5-{[(3S,4R)-1-({8-fluoro-2-[(3R)-oxolan-3-yl]quinolin-6-yl}methyl)-4-methylpyrrolidin-3-yl]oxy}-1-oxo-2,3-dihydro-1H-isoindol-2-yl)piperidine-2,6-dione]	–	0.985 nM	–	7.865	26.61	0.955 nM
COCc1ccc2cc(CN3CC[C@H](Oc4ccc5c(c4)CN(C4CCC(=O)NC4=O)C5=O)C3)ncc2c1 (stereo partly drawn) [3-(5-{[(3S)-1-{[7-(methoxymethyl)isoquinolin-3-yl]methyl}pyrrolidin-3-yl]oxy}-1-oxo-2,3-dihydro-1H-isoindol-2-yl)piperidine-2,6-dione]	30	1.42 nM	2.85 nM	8.95	–	–
O=C1CCC(N2Cc3cc(O[C@H]4CCN(Cc5cc(F)c6nc(C7CCOCC7)ccc6c5)C4)ccc3C2=O)C(=O)N1 (stereo partly drawn) [3-(5-{[(3S)-1-{[8-fluoro-2-(oxan-4-yl)quinolin-6-yl]methyl}pyrrolidin-3-yl]oxy}-1-oxo-2,3-dihydro-1H-isoindol-2-yl)piperidine-2,6-dione]	28	1.24 nM	1.09 nM	7.098	–	–
O=C1CCC(N2Cc3cc(O[C@H]4CCN(Cc5ccc6nc(N7C[C@H]8C[C@@H](C7)O8)ccc6c5)C4)ccc3C2=O)C(=O)N1 (stereo partly drawn) [3-(5-{[(3S)-1-({2-[(1R,5S)-6-oxa-3-azabicyclo[3.1.1]heptan-3-yl]quinolin-6-yl}methyl)pyrrolidin-3-yl]oxy}-1-oxo-2,3-dihydro-1H-isoindol-2-yl)piperidine-2,6-dione]	38	1.98 nM	3.19 nM	9.79	–	–
COC[C@@H]1CN(Cc2ccc3nc(C4CCOCC4)ncc3c2)C[C@H]1Oc1ccc2c(c1)CN([C@H]1CCC(=O)NC1=O)C2=O [(3S)-3-(5-{[(3S,4S)-4-(methoxymethyl)-1-{[2-(oxan-4-yl)quinazolin-6-yl]methyl}pyrrolidin-3-yl]oxy}-1-oxo-2,3-dihydro-1H-isoindol-2-yl)piperidine-2,6-dione]	–	17.6 nM	–	8.813	23.11	4.9 nM
CNc1ccc2cc(CN3CC[C@H](Oc4ccc5c(c4)CN(C4CCC(=O)NC4=O)C5=O)C3)ncc2c1 (stereo partly drawn) [3-(5-{[(3S)-1-{[7-(methylamino)isoquinolin-3-yl]methyl}pyrrolidin-3-yl]oxy}-1-oxo-2,3-dihydro-1H-isoindol-2-yl)piperidine-2,6-dione]	32	9.01 nM	42.1 nM	12.46	–	–
O=C1CCC(N2Cc3cc(O[C@H]4CCN(Cc5ccc6ncccc6n5)C4)ccc3C2=O)C(=O)N1 (stereo partly drawn) [3-(5-{[(3S)-1-[(1,5-naphthyridin-2-yl)methyl]pyrrolidin-3-yl]oxy}-1-oxo-2,3-dihydro-1H-isoindol-2-yl)piperidine-2,6-dione]	37	27.9 nM	2520 nM	54.03	–	–
Cc1ccc2cc(CN3CC[C@H](Oc4ccc5c(c4)CN(C4CCC(=O)NC4=O)C5=O)C3)ncc2c1 (stereo partly drawn) [3-(5-{[(3S)-1-[(7-methylisoquinolin-3-yl)methyl]pyrrolidin-3-yl]oxy}-1-oxo-2,3-dihydro-1H-isoindol-2-yl)piperidine-2,6-dione]	32.315	12.2 nM	70.7 nM	15.68	–	–
CC1(C)C[C@H](c2ccc3cc(CN4CC[C@H](Oc5ccc6c(c5)CN([C@H]5CCC(=O)NC5=O)C6=O)C4)ccc3n2)CCO1 [(3S)-3-(5-{[(3S)-1-({2-[(4R)-2,2-dimethyloxan-4-yl]quinolin-6-yl}methyl)pyrrolidin-3-yl]oxy}-1-oxo-2,3-dihydro-1H-isoindol-2-yl)piperidine-2,6-dione]	–	1.85 nM	–	11.19	26.67	1.83 nM
N#Cc1nc2ccc(CN3CC[C@H](Oc4ccc5c(c4)CN(C4CCC(=O)NC4=O)C5=O)C3)cc2cc1F (stereo partly drawn) [6-{[(3S)-3-{[2-(2,6-dioxopiperidin-3-yl)-1-oxo-2,3-dihydro-1H-isoindol-5-yl]oxy}pyrrolidin-1-yl]methyl}-3-fluoroquinoline-2-carbonitrile]	35	7.79 nM	32.8 nM	12.265	–	–
O=C1CCC(N2Cc3cc(O[C@H]4CCN(Cc5ccc6ncc(F)cc6c5F)C4)ccc3C2=O)C(=O)N1 (stereo partly drawn) [3-(5-{[(3S)-1-[(3,5-difluoroquinolin-6-yl)methyl]pyrrolidin-3-yl]oxy}-1-oxo-2,3-dihydro-1H-isoindol-2-yl)piperidine-2,6-dione]	28.96	8.71 nM	38.3 nM	12.86	–	–
